Assay results from patent US20110207723A1, “NOVEL FUSED AMINODIHYDROTHIAZINE DERIVATIVE” (EISAI R&D MANAGEMENT CO., LTD., priority 2008, published 2011).

Tested on: Aβ42 production
Experiment: Quantification of Aβ peptide in culture of neurons from rat fetus brain (Aβ42 ELISA)
Type: cell-based
Details: Neuron, 72 h, rat primary neuronal culture (embryonic day 18 Wistar rat cerebral cortex), medium collected three days after addition of compound, read-out: Aβ42 production reducing effect IC50
Method: Quantification of Aβ Peptide in Culture of Neurons from Rat Fetus Brain
Primary neuronal cultures were prepared from the cerebral cortex of embryonic day 18 Wistar rats (Charles River Japan, Yokohama, Japan). Specifically, the embryos were aseptically removed from pregnant rats under ether anesthesia. The brain was isolated from the embryo and immersed in an ice-cold L-15 medium (such as Invitrogen Corp. Cat #11415-064, Carlsbad, Calif., USA, or SIGMA L1518). The cerebral cortex was collected from the isolated brain under a stereoscopic microscope. The cerebral cortex fragments collected were enzymatically treated in an enzyme solution containing 0.25% trypsin (Invitrogen Corp. Cat #15050-065, Carlsbad, Calif., USA) and 0.01% DNase (Sigma D5025, St. Louis, Mo., USA) at 37° C. for 30 minutes to disperse the cells. Here, the enzymatic reaction was stopped by adding inactivated horse serum to the solution. The enzymatically treated solution was centrifuged at 1,500 rpm for five minutes to remove the supernatant. 5 to 10 ml of a medium was added to the resulting cell mass. Neurobasal medium (Invitrogen Corp. Cat #21103-049, Carlsbad, Calif., USA) supplemented with 2% B27 supplement (Invitrogen Corp. Cat #17504-044, Carlsbad, Calif., USA), 25 μM 2-mercaptoethanol (2-ME, WAKO Cat #139-06861, Osaka, Japan), 0.5 mM L-glutamine (Invitrogen Corp. Cat #25030-081, Carlsbad, Calif., USA), and Antibiotics-Antimycotics (Invitrogen Corp. Cat #15240-062, Carlsbad, Calif., USA) was used as the medium (Neurobasal/B27/2-ME). However, the above Neurobasal medium not supplemented with 2-ME (Neurobasal/B27) was used for the assay. The cells were redispersed by mild pipetting of the cell mass to which the medium was added. The cell dispersion was filtered through a 40-μm nylon mesh (Cell Strainer, Cat #35-2340, Becton Dickinson Labware, Franklin Lakes, N.J., USA) to remove the remaining cell mass, and thus a neuronal cell suspension was obtained. The neuronal cell suspension was diluted with the medium and then plated in a volume of 100 μl/well at an initial cell density of 5×10^5 cells/cm^2 in a 96-well polystyrene culture plate pre-coated with poly-L or D-lysine (Falcon Cat #35-3075, Becton Dickinson Labware, Franklin Lakes, N.J., USA coated with poly-L-lysine using the method shown below, or BIOCOAT™ cell environments Poly-D-lysine cell ware 96-well plate, Cat #35-6461, Becton Dickinson Labware, Franklin Lakes, N.J., USA). Poly-L-lysine coating was carried out as follows. 100 μg/ml of a poly-L-lysine (SIGMA P2636, St. Louis, Mo., USA) solution was aseptically prepared with a 0.15 M borate buffer (pH 8.5). […] of the solution was added to the 96-well polystyrene culture plate and incubated at room temperature for one or more hours or at 4° C. overnight or longer. Thereafter, the coated 96-well polystyrene culture plate was washed with sterile water four or more times, and then dried or rinsed with, for example, sterile PBS or medium, and used for cell plating. The plated cells were cultured in the culture plate at 37° C. in 5% CO2-95% air for one day. Then, the total amount of the medium was replaced with a fresh Neurobasal/B27/2-ME medium, and then the cells were cultured for further three days.
The drug was added to the culture plate on Day 4 of culture as follows. The total amount of the medium was removed from the wells, and 180 μl/well of Neurobasal medium not containing 2-ME and containing 2% B-27 (Neurobasal/B27) was added thereto. A solution of the test compound in dimethyl sulfoxide (hereinafter abbreviated as DMSO) was diluted with Neurobasal/B27 to a concentration 10-fold higher than the final concentration. 20 μl/well of the dilution was added to and sufficiently mixed with the medium. The final DMSO concentration was 1% or less. Only DMSO was added to the control group.
The cells were cultured for three days after addition of the compound, and the total amount of the medium was collected. […]

Q: With `C[C@H]1COC[C@]2(c3cc(NC(=O)c4ccc(C#N)cn4)ccc3F)N=C(N)SC[C@H]12` (relative stereo) [Example 27, N-[3-((4aR*,5R*,8aS*)-2-amino-5-methyl-4,4a,5,6-tetrahydro-7-oxa-3-thia-1-azanaphthalen-8a-yl)-4-fluorophenyl]-5-cyanopyridine-2-carboxamide] as the compound, how does the IC50 read?
A: 8 nM

Q: For `C[C@H]1COC[C@]2(c3cc(NC(=O)c4cnc(OC(F)F)cn4)ccc3F)N=C(N)SC[C@H]12` (relative stereo) [Example 28, N-[3-((4aR*,5R*,8aS*)-2-amino-5-methyl-4,4a,5,6-tetrahydro-7-oxa-3-thia-1-azanaphthalen-8a-yl)-4-fluorophenyl]-5-difluoromethoxypyrazine-2-carboxamide], which IC50 is on record?
A: 1.4 nM

Q: Which IC50 does the source give for `C[C@H]1COC[C@]2(c3cc(NC(=O)c4cnc(C(F)F)cn4)ccc3F)N=C(N)SC[C@H]12` (relative stereo) [Example 29, N-[3-((4aR*,5R*,8aS*)-2-amino-5-methyl-4,4a,5,6-tetrahydro-7-oxa-3-thia-1-azanaphthalen-8a-yl)-4-fluorophenyl]-5-difluoromethylpyrazine-2-carboxamide] here?
A: 3 nM

Q: For `CO[C@H]1COC[C@]2(c3cc(NC(=O)c4ccc(C#N)cn4)ccc3F)N=C(N)SC[C@H]12` (relative stereo) [Example 30, N-[3-((4aS*,5R*,8aS*)-2-amino-5-methoxy-4,4a,5,6-tetrahydro-7-oxa-3-thia-1-azanaphthalen-8a-yl)-4-fluorophenyl]-5-cyanopyridine-2-carboxamide], which IC50 is on record?
A: 6 nM

Q: `C[C@H]1SC(N)=N[C@@]2(c3cc(NC(=O)c4ccc(C#N)cn4)ccc3F)COCC[C@@H]12` (relative stereo) [Example 31, N-[3-((2R*,4aR*,8aS*)-2-amino-4-methyl-4,4a,5,6-tetrahydro-7-oxa-3-thia-1-azanaphthalen-8a-yl)-4-fluorophenyl]-5-cyanopyridine-2-carboxamide] was tested. Which IC50 did it give?
A: 1.9 nM

Q: For `C[C@H]1SC(N)=N[C@@]2(c3cc(NC(=O)c4cnc(C(F)F)cn4)ccc3F)COCC[C@@H]12` (relative stereo) [Example 32, N-[3-((2R*,4aR*,8aS*)-2-amino-4-methyl-4,4a,5,6-tetrahydro-7-oxa-3-thia-1-azanaphthalen-8a-yl)-4-fluorophenyl]-5-difluoromethylpyrazine-2-carboxamide], which IC50 is on record?
A: 3 nM

Q: With `N#Cc1ccc(C(=O)Nc2ccc(F)c([C@]34CO[C@@H](C(F)(F)F)C[C@H]3CSC(N)=N4)c2)nc1` (relative stereo) [Example 35, N-[3-((4aR*,6R*,8aS*)-2-amino-6-trifluoromethyl-4,4a,5,6-tetrahydro-7-oxa-3-thia-1-azanaphthalen-8a-yl)-4-fluorophenyl]-5-cyanopyridine-2-carboxamide] as the compound, how does the IC50 read?
A: 2.1 nM

Q: `NC1=N[C@@]2(c3cc(NC(=O)c4cnc(OC(F)F)cn4)ccc3F)CO[C@@H](C(F)(F)F)C[C@H]2CS1` (relative stereo) [Example 36, N-[3-((4aR*,6R*,8aS*)-2-amino-6-trifluoromethyl-4,4a,5,6-tetrahydro-7-oxa-3-thia-1-azanaphthalen-8a-yl)-4-fluorophenyl]-5-difluoromethoxypyrazine-2-carboxamide] was tested. Which IC50 did it give?
A: 0.5 nM

Q: Which IC50 does the source give for `NC1=N[C@@]2(c3cc(NC(=O)c4ccc(F)cn4)ccc3F)CO[C@@H](C(F)(F)F)C[C@H]2CS1` (relative stereo) [Example 37, N-[3-((4aR*,6R*,8aS*)-2-amino-6-trifluoromethyl-4,4a,5,6-tetrahydro-7-oxa-3-thia-1-azanaphthlen-8a-yl)-4-fluorophenyl]-5-fluoropyriidne-2-carboxamide] here?
A: 2 nM

Q: Which IC50 does the source give for `NC1=N[C@@]2(c3cc(NC(=O)c4ccccn4)ccc3F)CO[C@@H](C(F)(F)F)C[C@H]2CS1` (relative stereo) [Example 38, N-[3-((4aR*,6R*,8aS*)-2-amino-6-trifluoromethyl-4,4a,5,6-tetrahydro-7-oxa-3-thia-1-azanaphthalen-8a-yl)-4-fluorophenyl]-pyridine-2-carboxamide] here?
A: 3 nM

Q: Which IC50 does the source give for `NC1=N[C@@]2(c3cc(NC(=O)c4cnc(OCF)cn4)ccc3F)CO[C@@H](C(F)(F)F)C[C@H]2CS1` (relative stereo) [Example 39, N-[3-((4aR*,6R*,8aS*)-2-amino-6-trifluoromethyl-4,4a,5,6-tetrahydro-7-oxa-3-thia-1-azanaphthalen-8a-yl)-4-fluorophenyl]-5-fluoromethoxypyrazine-2-carboxamide] here?
A: 1 nM

Q: `NC1=N[C@@]2(c3cc(NC(=O)c4ccncn4)ccc3F)CO[C@@H](C(F)(F)F)C[C@H]2CS1` (relative stereo) [Example 40, N-[3-((4aR*,6R*,8aS*)-2-amino-6-trifluoromethyl-4,4a,5,6-tetrahydro-7-oxa-3-thia-1-azanaphthalen-8a-yl)-4-fluorophenyl]-pyrimidine-4-carboxamide] was tested. Which IC50 did it give?
A: 2 nM

Q: `NC1=N[C@@]2(c3cc(NC(=O)c4ncc(F)cc4F)ccc3F)CO[C@@H](C(F)(F)F)C[C@H]2CS1` (relative stereo) [Example 41, N-[3-((4aR*,6R*,8aS*-2-amino-6-trifluoromethyl-4,4a,5,6-tetrahydro-7-oxa-3-thia-1-azanaphthalen-8a-yl)-4-fluorophenyl]-3,5-difluoropyridine-2-carboxamide] was tested. Which IC50 did it give?
A: 2 nM

Q: How did the IC50 turn out when `NC1=N[C@@]2(c3cc(NC(=O)c4ccc(OC(F)F)cn4)ccc3F)CO[C@@H](C(F)(F)F)C[C@H]2CS1` (relative stereo) [Example 42, N-[3-((4aR*,6R*,8aS*)-2-amino-6-trifluoromethyl-4,4a,5,6-tetrahydro-7-oxa-3-thia-1-azanaphthalen-8a-yl)-4-fluorophenyl]-5-difluoromethoxypyridine-2-carboxamide] was run?
A: 0.9 nM

Q: For `NC1=N[C@@]2(c3cc(NC(=O)c4cnc(C(F)F)cn4)ccc3F)CO[C@@H](C(F)(F)F)C[C@H]2CS1` (relative stereo) [Example 43, N-[3-((4aR*,6R*,8aS*)-2-amino-6-trifluoromethyl-4,4a,5,6-tetrahydro-7-oxa-3-thia-1-azanaphthalen-8a-yl)-4-fluorophenyl]-5-difluoromethylpyrazine-2-carboxamide], which IC50 is on record?
A: 1.7 nM

Q: How did the IC50 turn out when `NC1=N[C@@]2(c3cc(-c4cccnc4F)ccc3F)CO[C@@H](C(F)(F)F)C[C@H]2CS1` (relative stereo) [Example 59, (±)-(4aR*,6R*,8aS*)-8a-[2-fluoro-5-(2-fluoropyridin-3-yl)phenyl]-6-trifluoromethyl-4,4a,5,6,8,8a-hexahydro-7-oxa-3-thia-1-azanaphthalen-2-ylamine] was run?
A: 87 nM

Q: `N#Cc1ccc(C(=O)Nc2ccc(OC(F)(F)F)c([C@]34COCC[C@H]3CSC(N)=N4)c2)nc1` (single isomer, unassigned) [Example 4, N-[3-((4aR*,8aS*)-2-amino-4,4,5,6-tetrahydro-7-oxa-3-thia-1-azanaphthalen-8a-yl)-4-trifluoromethoxyphenyl]-5-cyanopyridine-2-carboxamide] was tested. Which IC50 did it give?
A: 11 nM

Q: `NC1=N[C@@]2(c3cc(NC(=O)c4ccc(Cl)cn4)ccc3OC(F)(F)F)COCC[C@H]2CS1` (single isomer, unassigned) [Example 5, N-[3-((8S*,8aS*)-2-amino-4,4a,5,6-tetrahydro-7-oxa-3-thia-1-azanaphthalen-8a-yl)-4-trifluoromethoxyphenyl]-5-chloropyridine-2-carboxamide] was tested. Which IC50 did it give?
A: 58 nM
